Source: PubChem BioAssay (NCI)
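Abbreviation: GI50, concentration required for 50% inhibition of growth. TGI: concentration producing complete growth inhibition.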

How the values were obtained:
Experiment in all cases: NCI-60 cell line screen, 384-well format
786-0 renal = system: 786-0 renal
A498 renal = system: A498 renal
A549 NSCLC = system: A549 NSCLC
ACHN renal = system: ACHN renal
BT-549 breast = system: BT-549 breast
CAKI-1 renal = system: CAKI-1 renal
CCRF-CEM leukemia = system: CCRF-CEM leukemia
COLO 205 colon = system: COLO 205 colon
DU-145 prostate = system: DU-145 prostate
EKVX NSCLC = system: EKVX NSCLC
HCC-2998 colon = system: HCC-2998 colon
HCT-116 colon = system: HCT-116 colon
HCT-15 colon = system: HCT-15 colon
HL-60(TB) leukemia = system: HL-60(TB) leukemia
HOP-62 NSCLC = system: HOP-62 NSCLC
HOP-92 NSCLC = system: HOP-92 NSCLC
HT29 colon = system: HT29 colon
IGROV1 ovarian = system: IGROV1 ovarian
K-562 leukemia = system: K-562 leukemia
KM12 colon = system: KM12 colon
LOX IMVI melanoma = system: LOX IMVI melanoma
M14 melanoma = system: M14 melanoma
MALME-3M melanoma = system: MALME-3M melanoma
MCF7 breast = system: MCF7 breast
MDA-MB-231 breast = system: MDA-MB-231 breast
MDA-MB-435 melanoma = system: MDA-MB-435 melanoma
MDA-MB-468 breast = system: MDA-MB-468 breast
MOLT-4 leukemia = system: MOLT-4 leukemia
NCI-H226 lung = system: NCI-H226 lung
NCI-H23 lung = system: NCI-H23 lung
NCI-H322M lung = system: NCI-H322M lung
NCI-H460 NSCLC = system: NCI-H460 NSCLC
NCI-H522 lung = system: NCI-H522 lung
NCI/ADR-RES ovarian = system: NCI/ADR-RES ovarian
OVCAR-3 ovarian = system: OVCAR-3 ovarian
OVCAR-4 ovarian = system: OVCAR-4 ovarian
OVCAR-5 ovarian = system: OVCAR-5 ovarian
OVCAR-8 ovarian = system: OVCAR-8 ovarian
PC-3 prostate = system: PC-3 prostate
RPMI-8226 leukemia = system: RPMI-8226 leukemia
RXF 393 renal = system: RXF 393 renal
SF-268 CNS = system: SF-268 CNS
SF-295 CNS = system: SF-295 CNS
SF-539 CNS = system: SF-539 CNS
SK-MEL-2 melanoma = system: SK-MEL-2 melanoma
SK-MEL-28 melanoma = system: SK-MEL-28 melanoma
SK-MEL-5 melanoma = system: SK-MEL-5 melanoma
SK-OV-3 ovarian = system: SK-OV-3 ovarian
SN12C renal = system: SN12C renal
SNB-19 CNS = system: SNB-19 CNS
SNB-75 CNS = system: SNB-75 CNS
SR leukemia = system: SR leukemia
SW-620 colon = system: SW-620 colon
T-47D breast = system: T-47D breast
TK-10 renal = system: TK-10 renal
U251 glioblastoma = system: U251 glioblastoma
UACC-257 melanoma = system: UACC-257 melanoma
UACC-62 melanoma = system: UACC-62 melanoma
UO-31 renal = system: UO-31 renal
HS 578T breast = system: HS 578T breast

Work on CC(C)Oc1ccc(C(=O)N[C@H](CNC(=O)CN(C)C)Cc2ccc(-c3cn4cccc([C@H](C)O)c4n3)cc2)cc1Cl yielded a GI50 ([…]-0 renal) of under 17.8 nM, a TGI (786-0 renal) of 4560 nM and a GI50 (A498 renal) of under 22.9 nM. It also gave a TGI (A498 renal) of 11400 nM, a GI50 (A549 NSCLC) of under 20.7 nM and a TGI (A549 NSCLC) of 14500 nM. The GI50 (ACHN renal) was 53.7 nM, the TGI (ACHN renal) was 20100 nM and the GI50 (BT-549 breast) was under 21.2 nM. It also gave a GI50 (CAKI-1 renal) of under 28.3 nM, a TGI (CAKI-1 renal) of 15400 nM and a GI50 (CCRF-CEM leukemia) of 17.2 nM. It also gave a TGI (CCRF-CEM leukemia) of 33.5 nM, a GI50 (COLO 205 colon) of 21.4 nM and a TGI (COLO 205 colon) of 42.7 nM. It also gave a GI50 (DU-145 prostate) of under 17.4 nM, a TGI (DU-145 prostate) of under 28.9 nM and a GI50 (EKVX NSCLC) of 27.9 nM. For the same molecule, the TGI (EKVX NSCLC) was 240 nM, the GI50 (HCC-2998 colon) was under 17.9 nM and the GI50 (HCT-116 colon) was under 17.2 nM. It also gave a TGI (HCT-116 colon) of 12200 nM, a GI50 (HCT-15 colon) of 84.7 nM and a TGI (HCT-15 colon) of 15800 nM. It also gave a GI50 (HL-60(TB) leukemia) of under 14.2 nM, a TGI (HL-60(TB) leukemia) of under 18.9 nM and a GI50 (HOP-62 NSCLC) of under 18.1 nM. For the same molecule, the TGI (HOP-62 NSCLC) was 14700 nM, the GI50 (HOP-92 NSCLC) was 55 nM and the TGI (HOP-92 NSCLC) was 12300 nM. The GI50 (HT29 colon) was under 12.2 nM, the TGI (HT29 colon) was under 21.4 nM and the TGI (IGROV1 ovarian) was 20900 nM. It also gave a GI50 (K-562 leukemia) of under 12.8 nM, a TGI (K-562 leukemia) of under 22.1 nM and a GI50 (KM12 colon) of under 20.9 nM. It also gave a TGI (KM12 colon) of 13800 nM, a GI50 (LOX IMVI melanoma) of 37.9 nM and a TGI (LOX IMVI melanoma) of 10300 nM. The GI50 (M14 melanoma) was under 16 nM, the TGI (M14 melanoma) was 269 nM and the GI50 (MALME-3M melanoma) was 182 nM. It also gave a TGI (MALME-3M melanoma) of 3160 nM, a GI50 (MCF7 breast) of under 23 nM and a TGI (MCF7 breast) of 13500 nM. For the same molecule, the GI50 (MDA-MB-231 breast) was under 19.6 nM, the TGI (MDA-MB-231 breast) was 4270 nM and the GI50 (MDA-MB-435 melanoma) was under 14.2 nM. For the same molecule, the TGI (MDA-MB-435 melanoma) was under 22.8 nM, the GI50 (MDA-MB-468 breast) was under 10 nM and the TGI (MDA-MB-468 breast) was under 10 nM. It also gave a GI50 (MOLT-4 leukemia) of under 11.1 nM, a TGI (MOLT-4 leukemia) of under 15.9 nM and a GI50 (NCI-H226 lung) of 343 nM. The TGI (NCI-H226 lung) was 14500 nM, the GI50 (NCI-H23 lung) was under 14.5 nM and the TGI (NCI-H23 lung) was under 21.8 nM. For the same molecule, the GI50 (NCI-H322M lung) was under 25.7 nM, the TGI (NCI-H322M lung) was 16700 nM and the GI50 (NCI-H460 NSCLC) was under 14.7 nM. For the same molecule, the TGI (NCI-H460 NSCLC) was under 21.4 nM, the GI50 (NCI-H522 lung) was under 10 nM and the TGI (NCI-H522 lung) was under 10 nM. For the same molecule, the GI50 (NCI/ADR-RES ovarian) was 1410 nM, the TGI (NCI/ADR-RES ovarian) was 4670 nM and the GI50 (OVCAR-3 ovarian) was under 10 nM. For the same molecule, the TGI (OVCAR-3 ovarian) was under 10 nM, the GI50 (OVCAR-4 ovarian) was under 20.9 nM and the TGI (OVCAR-4 ovarian) was 16100 nM. It also gave a GI50 (OVCAR-5 ovarian) of under 20.7 nM, a TGI (OVCAR-5 ovarian) of 14400 nM and a GI50 (OVCAR-8 ovarian) of under 19 nM. The TGI (OVCAR-8 ovarian) was 15900 nM, the GI50 (PC-3 prostate) was under 20.3 nM and the TGI (PC-3 prostate) was 12800 nM. The GI50 (RPMI-8226 leukemia) was under 13.7 nM, the TGI (RPMI-8226 leukemia) was under 18.4 nM and the GI50 (RXF 393 renal) was under 18.5 nM. It also gave a GI50 (SF-268 CNS) of under 17.9 nM, a TGI (SF-268 CNS) of 13200 nM and a GI50 (SF-295 CNS) of under 10 nM. It also gave a TGI (SF-295 CNS) of under 10 nM, a GI50 (SF-539 CNS) of under 15.9 nM and a TGI (SF-539 CNS) of under 34 nM. For the same molecule, the GI50 (SK-MEL-2 melanoma) was under 10 nM, the TGI (SK-MEL-2 melanoma) was under 13 nM and the GI50 (SK-MEL-28 melanoma) was 270 nM. The TGI (SK-MEL-28 melanoma) was 8220 nM, the GI50 (SK-MEL-5 melanoma) was under 21.1 nM and the GI50 (SK-OV-3 ovarian) was under 16.1 nM. For the same molecule, the TGI (SK-OV-3 ovarian) was 8720 nM, the GI50 (SN12C renal) was under 20 nM and the TGI (SN12C renal) was 14200 nM. It also gave a GI50 (SNB-19 CNS) of under 17.4 nM, a TGI (SNB-19 CNS) of 14800 nM and a GI50 (SNB-75 CNS) of 44.6 nM. For the same molecule, the TGI (SNB-75 CNS) was 16600 nM, the GI50 (SR leukemia) was under 12.1 nM and the TGI (SR leukemia) was under 17.1 nM. It also gave a GI50 (SW-620 colon) of under 19.8 nM, a TGI (SW-620 colon) of 13400 nM and a GI50 (T-47D breast) of under 17.4 nM. The TGI (T-47D breast) was 12100 nM, the GI50 (TK-10 renal) was under 26.7 nM and the TGI (TK-10 renal) was 14700 nM. The GI50 (U251 glioblastoma) was under 17.5 nM, the TGI (U251 glioblastoma) was 11500 nM and the GI50 (UACC-257 melanoma) was under 21.9 nM. It also gave a TGI (UACC-257 melanoma) of 1820 nM, a GI50 (UACC-62 melanoma) of under 17.7 nM and a TGI (UACC-62 melanoma) of 9180 nM. The GI50 (UO-31 renal) was 49.2 nM and the TGI (UO-31 renal) was 17000 nM.

With NC[C@@](O)(c1ccc(Cl)cc1)c1ccc(-c2cn[nH]c2)cc1 the GI50 (A498 renal) was 1320 nM, the TGI (A498 renal) was 2610 nM and the GI50 (ACHN renal) was 1320 nM. The TGI (ACHN renal) was 2600 nM, the GI50 (BT-549 breast) was 511 nM and the TGI (BT-549 breast) was 1780 nM. The GI50 (CAKI-1 renal) was 560 nM, the TGI (CAKI-1 renal) was 1940 nM and the GI50 (DU-145 prostate) was 1470 nM. The TGI (DU-145 prostate) was 2810 nM, the GI50 (EKVX NSCLC) was 560 nM and the TGI (EKVX NSCLC) was 1820 nM. For the same molecule, the GI50 (HCT-116 colon) was 1650 nM, the TGI (HCT-116 colon) was 3080 nM and the GI50 (HL-60(TB) leukemia) was 944 nM. The TGI (HL-60(TB) leukemia) was 2160 nM, the GI50 (HOP-92 NSCLC) was 1200 nM and the TGI (HOP-92 NSCLC) was 2530 nM. It also gave a GI50 (HS 578T breast) of 957 nM, a TGI (HS 578T breast) of 2150 nM and a GI50 (IGROV1 ovarian) of 323 nM. It also gave a TGI (IGROV1 ovarian) of 1270 nM, a GI50 (MALME-3M melanoma) of 1650 nM and a TGI (MALME-3M melanoma) of 3020 nM. It also gave a GI50 (MDA-MB-468 breast) of 849 nM, a TGI (MDA-MB-468 breast) of 2110 nM and a GI50 (OVCAR-3 ovarian) of 1960 nM. It also gave a TGI (OVCAR-3 ovarian) of 3390 nM, a GI50 (RXF 393 renal) of 999 nM and a TGI (RXF 393 renal) of 2180 nM. The GI50 (SR leukemia) was 369 nM, the TGI (SR leukemia) was 1380 nM and the GI50 (T-47D breast) was 1300 nM. The TGI (T-47D breast) was 2590 nM, the GI50 (TK-10 renal) was 904 nM and the TGI (TK-10 renal) was 2110 nM. The GI50 (U251 glioblastoma) was 1580 nM and the TGI (U251 glioblastoma) was 2950 nM.
